Experimental data published in patent USRE47689E1, “Compounds for treating spinal muscular atrophy” (PTC Therapeutics, Inc., priority 2011, dated 2019).

Assays:
[1] = tested on: SMN2 minigene (full length SMN2 minigene mRNA containing SMN2 exon 7); experiment: SMN2 minigene mRNA splicing RT-qPCR assay in cultured cells; assay type: cell-based, human; conditions: Homo sapiens, HEK293-H; HEK293H cells stably transfected with SMN2-A minigene; 24 hours; 7-point concentration curve; 1.5-fold relative to vehicle-treated cells; read-out: EC1.5x for production of full length SMN2 mRNA
Procedure, shortened: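 Full-length SMN2 minigene mRNA (exon 7 included), minigene-specific and not endogenous SMN, quantified by RT-qPCR multiplexed with GAPDH in stably transfected HEK293H cells after 24 h compound exposure at 37° C. Abundance from efficiency-corrected Ct, normalized to GAPDH and vehicle; EC1.5x reported as star bins.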

Smn protein = Smn protein assay in cultured cells (SMN HTRF); assay type: cell-based, human; conditions: 48 hours; for EC1.5x (concentration giving 1.5-fold Smn protein increase): SMA Type 1 patient fibroblast cells (GM03813), 7-point concentration curve, SMN HTRF, concentration producing 1.5 times Smn protein vs DMSO vehicle control, read-out: EC1.5x for Smn protein expression; for maximum fold (Fold) increase of Smn protein: SMA patient fibroblast cells, 7-point concentration data, fold increase relative to vehicle control (SMN HTRF)
Procedure, shortened: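 Smn in SMA fibroblast lysates, measured by anti-SMN HTRF after 48 h compound exposure; EC1.5x from fold change over vehicle.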

Row | Structure (SMILES) | EC (1.5-fold) [1] [µM] | EC1.5x (concentration giving 1.5-fold Smn protein increase) (Smn protein) [nM] | maximum fold (Fold) increase of Smn protein (Smn protein) | melting point
1 | CCN1CCC(c2ccc3cc(-c4cnc5nc(C)cn5c4)c(=O)oc3c2)CC1 [Compound 836, 7-(1-ethylpiperidin-4-yl)-3-(2-methylimidazo[1,2-a]pyrimidin-6-yl)-2H-chromen-2-one] | 0.3 to 1 | 300 to 1000 | ***** (fold increase >1.65) | 288 to 290 °C
2 | CN1CCC(N(C)c2ccc3cc(-c4cn5cccnc5n4)c(=O)oc3c2)C1 (centres unmarked) [Compound 181, 3-(imidazo[1,2-a]pyrimidin-2-yl)-7-[methyl(1-methylpyrrolidin-3-yl)amino]-2H-chromen-2-one] | < 0.1 | – | ** (fold increase between >1.2 and ≤1.35) | 215 to 217 °C
3 | Cc1cn2cc(-c3cc4ccc(N5CCCNCC5)cc4oc3=O)nc2c(C)n1 [Compound 518, 7-(1,4-diazepan-1-yl)-3-(6,8-dimethylimidazo[1,2-a]pyrazin-2-yl)-2H-chromen-2-one] | < 0.1 | < 300 | ***** (fold increase >1.65) | 188 to 190 °C
4 | Cl.O=c1oc2cc(N3CCNCC3)ccc2cc1-c1nc2cccc(Cl)c2s1 [Compound 6, 3-(7-chloro-1,3-benzothiazol-2-yl)-7-(piperazin-1-yl)-2H-chromen-2-one hydrochloride] | 1 to 3 | – | * (maximum fold increase of ≤1.2) | 320 °C (dec.)
5 | O=c1oc2cc(N3CCNCC3)ccc2cc1-c1ccc2c(c1)OCO2 [Compound 486, 3-(1,3-benzodioxol-5-yl)-7-(piperazin-1-yl)-2H-chromen-2-one] | 3 to 30 | – | * (maximum fold increase of ≤1.2) | 218 to 220 °C
6 | Cc1cn2cc(-c3cc4ccc(N5CCCNCC5)cc4oc3=O)cc2cn1 [Compound 638, 7-(1,4-diazepan-1-yl)-3-(3-methylpyrrolo[1,2-a]pyrazin-7-yl)-2H-chromen-2-one] | < 0.1 | < 300 | **** (fold increase between >1.5 and ≤1.65) | 178 to 181 °C
7 | C[C@@H]1CN(c2ccc3cc(-c4ccc5c(c4)OCO5)c(=O)oc3c2)CCN1 [Compound 488, 3-(1,3-benzodioxol-5-yl)-7-[(3R)-3-methylpiperazin-1-yl]-2H-chromen-2-one] | 3 to 30 | – | * (maximum fold increase of ≤1.2) | 135 to 137 °C
8 | CCN1C[C@@H]2CN(c3ccc4cc(-c5cn6cc(C)nc(C)c6n5)c(=O)oc4c3)C[C@@H]2C1 [Compound 747, 3-(6,8-dimethylimidazo[1,2-a]pyrazin-2-yl)-7-[(3aR,6aS)-5-ethylhexahydropyrrolo[3,4-c]pyrrol-2(1H)-yl]-2H-chromen-2-one] | < 0.1 | < 300 | ***** (fold increase >1.65) | 231 to 237 °C
9 | CCc1cn2cc(-c3cc4ccc(N5CCCN(C)CC5)cc4oc3=O)nc2s1 [Compound 431, 3-(2-ethylimidazo[2,1-b][1,3]thiazol-6-yl)-7-(4-methyl-1,4-diazepan-1-yl)-2H-chromen-2-one] | 1 to 3 | – | * (maximum fold increase of ≤1.2) | 188 to 191 °C
10 | CCNCCOc1ccc2cc(-c3cn4cc(C)nc(C)c4n3)c(=O)oc2c1 [Compound 930, 3-(6,8-dimethylimidazo[1,2-a]pyrazin-2-yl)-7-[2-(ethylamino)ethoxy]-2H-chromen-2-one] | < 0.1 | < 300 | ***** (fold increase >1.65) | 189 to 193 °C
11 | Cc1cn2cc(-c3cc4ccc(OCCN[C@H](C)CO)cc4oc3=O)nc2c(C)n1 [Compound 946, 3-(6,8-dimethylimidazo[1,2-a]pyrazin-2-yl)-7-(2-{[(2R)-1-hydroxypropan-2-yl]amino}ethoxy)-2H-chromen-2-one] | < 0.1 | < 300 | **** (fold increase between >1.5 and ≤1.65) | 185 to 188 °C
12 | Cc1ccn2nc(-c3cc4ccc(N5CCN(C)CC5)cc4oc3=O)cc2c1 [Compound 303, 7-(4-methylpiperazin-1-yl)-3-(5-methylpyrazolo[1,5-a]pyridin-2-yl)-2H-chromen-2-one] | 0.3 to 1 | 3000 to 10000 | *** (fold increase between >1.35 and ≤1.5) | 279 to 281 °C
13 | Cc1cnc2nc(-c3cc4ccc(N5CCCN(C)CC5)cc4oc3=O)cn2c1 [Compound 250, 7-(4-methyl-1,4-diazepan-1-yl)-3-(6-methylimidazo[1,2-a]pyrimidin-2-yl)-2H-chromen-2-one] | 0.1 to 0.3 | 1000 to 3000 | *** (fold increase between >1.35 and ≤1.5) | 285 to 287 °C
14 | CCN1CCN(c2ccc3cc(-c4cc5cc(C)ccn5n4)c(=O)oc3c2)CC1 [Compound 307, 7-(4-ethylpiperazin-1-yl)-3-(5-methylpyrazolo[1,5-a]pyridin-2-yl)-2H-chromen-2-one] | 0.3 to 1 | 3000 to 10000 | *** (fold increase between >1.35 and ≤1.5) | 257 to 259 °C
15 | Cc1cn2cc(-c3cc4ccc(N5CC[C@H](NC(C)C)C5)cc4oc3=O)cc2c(C)n1 [Compound 725, 3-(1,3-dimethylpyrrolo[1,2-a]pyrazin-7-yl)-7-[(3S)-3-(propan-2-ylamino)pyrrolidin-1-yl]-2H-chromen-2-one] | < 0.1 | 300 to 1000 | *** (fold increase between >1.35 and ≤1.5) | 217 to 220 °C
16 | CN1CCN(c2ccc3cc(-c4cccc(OC5CCC5)n4)c(=O)oc3c2)CC1 [Compound 415, 3-[6-(cyclobutyloxy)pyridin-2-yl]-7-(4-methylpiperazin-1-yl)-2H-chromen-2-one] | 3 to 30 | – | * (maximum fold increase of ≤1.2) | 158 to 160 °C
17 | CN1CCCN(c2cc(F)c3cc(-c4cn5cccnc5n4)c(=O)oc3c2)CC1 [Compound 335, 5-fluoro-3-(imidazo[1,2-a]pyrimidin-2-yl)-7-(4-methyl-1,4-diazepan-1-yl)-2H-chromen-2-one] | 0.1 to 0.3 | 1000 to 3000 | *** (fold increase between >1.35 and ≤1.5) | 300 to 302 °C
18 | O=c1oc2cc(N3CCNCC3)ccc2cc1-c1cn2cc(Cl)sc2n1 [Compound 494, 3-(2-chloroimidazo[2,1-b][1,3]thiazol-6-yl)-7-(piperazin-1-yl)-2H-chromen-2-one] | 0.1 to 0.3 | – | * (maximum fold increase of ≤1.2) | 240 to 242 °C
19 | COc1cc(-c2cc3ccc(N4CCNCC4)cc3oc2=O)ccc1F [Compound 576, 3-(4-fluoro-3-methoxyphenyl)-7-(piperazin-1-yl)-2H-chromen-2-one] | 1 to 3 | – | * (maximum fold increase of ≤1.2) | 153 to 155 °C
